melting point [°C] | Compound
88 to 90 | O=P(O)(O)CCCCc1ccccc1
99 to 101 | CC(N1CCN(c2nnn(Cc3ccc(C(C)(C)C)cc3)n2)CC1)C(O)(Cn1cncn1)c1ccc(F)cc1F (centres undefined)
259 | CC(C)n1cc(-c2nc(C(N)=O)c(N)nc2-c2cccc(F)c2)ccc1=O
129 to 132 | CC(C)(C)OC(=O)N[C@@H](Cc1ccccn1)C(=O)NCC(=O)c1ccc(-c2ccccc2)cc1
289 to 291 | O=C(O)c1ccc2c(c1)Sc1ccc(F)cc1C(=O)C2
131 to 133 | CCCc1c2c(cc3c(=O)cc(C(=O)OCC)oc13)C(O)C(C(=O)OCC)(C(=O)OCC)O2 (centres undefined)
49 to 51 | O=C(c1cncc(Br)c1)N1CCOCC1
190 to 191 | CNC(=O)c1ccc(COCc2csc3nc(C(=O)NCc4cccc(OC)c4)[nH]c(=O)c23)cc1
37.5 to 39.5 | CCOC(=O)C=CN1CCCC1
191 to 192 | CCNC(=O)CSc1nc(Cl)cc(Nc2cccc(C)c2C)n1
216 | CC(CC(N)=O)(c1ccc(O)cc1)c1ccc(O)cc1
152 | Cc1cc(-c2cc(F)c(F)cc2-c2ccc(S(C)(=O)=O)cc2)ccc1Cl
108 to 114 | O=C(C1COc2ccc([N+](=O)[O-])cc21)N1CCCCC1 (centres undefined)
42 to 44 | CCCCCc1c(C(C)C)nc(C(C)C)c(CO)c1-c1ccc(C(C)C)cc1
128 to 130 | Cc1ccc(Cc2cnc(NCCSCc3cc(CN(C)C)ccn3)[nH]c2=O)cn1
242 to 244 | COC(=O)c1[nH]cc(C(=O)NCc2ccc(F)cc2)c(=O)c1OC
121 to 122 | COc1ccc(C2(O)CCN(CC3CN(c4ccccc4)C(=O)O3)CC2)cc1 (centres undefined)
187 to 188 | COc1ccccc1C1NC(=O)C(C)S1 (centres undefined)
182 | O=C(c1ccc(F)cc1)C1CCN(C2CN(Cc3ccncc3)CCC2O)CC1 (centres undefined)
143 to 145 | COc1ccccc1N1CCN(CC(O)COc2ccc(OCc3ccccc3)c3ccccc23)CC1 (centres undefined)
116 to 118 | CCOC(=O)CC1NC(=O)c2ccccc21 (centres undefined)
101 | CCOC(=O)c1oc2ccc(CSC)c(O)c2c1C
76.6 to 76.8 | CCOC(=O)/C=C/c1ccc(OCCOCCOC)cc1Oc1ncc(C(F)(F)F)cc1Cl
141 | O[C@H]1CCC[C@H]1Oc1cccc2onc(OCC3CCN(CC4(O)CCOCC4)CC3)c12 (relative stereo)

melting point [°C] | Compound
110 to 111 | CC(C)c1nc(CCl)n(C)c1Sc1cc(Cl)cc(Cl)c1
107 to 108 | Cc1oc(-c2ccccc2)nc1COc1ccc(Cn2cc(CCC(=O)O)c(Oc3ccc(C(F)(F)F)cn3)n2)cc1
212 to 214 | N#Cc1ccc2c(c1)C(=O)NC(C(Cl)(Cl)Cl)O2 (centres undefined)
110 to 115 | O=C(NCC12CC3CC(CC(C3)C1)C2)c1cc(-c2cccnc2N2CCC(C(=O)O)CC2)ccc1Cl
184 to 186 | COc1nc2cc(Cl)c(Cl)c([N+](=O)[O-])c2nc1OC
218 to 222 | CCCCn1c(O)cc(C)c(C#N)c1=O
150 to 152 | COc1cc(OC)nc(Oc2cccc(Cl)c2C(=O)NS(=O)(=O)C(C)C)n1
103 to 106 | C#CC[C@H](c1nc2cc(Cl)ccc2c(=O)n1Nc1ccccc1)N(CCCN)C(=O)c1cc2ccccc2s1
166 | O=C(NC(CO)CO)c1cccc(-c2ccc3c(c2)C(c2cc(Cl)ccc2Cl)CC3)c1 (centres undefined)
163 to 166 | CCOC(=O)N[C@@H](C(=O)N1CCC[C@H]1C(=O)O)c1ccccc1
215 to 217 | CSc1nn2c(O)cc(CCl)nc2c1S(=O)(=O)c1ccccc1
198 to 200 | CCCOc1ccc(S(=O)(=O)N2CCN(C)CC2)cc1-c1nc2cc3ncn(Cc4cccc(Cl)c4)c3cc2c(=O)[nH]1
89 to 98 | COc1cc(CC(=O)O)ccc1OCCNC(=O)C1Cc2ccccc2N1S(=O)(=O)c1ccc(-c2cccc(C(F)(F)F)c2)cc1 (centres undefined)
123 to 127 | CSc1nc(-c2cccnc2)c(-c2ccccc2)n1C
77 to 79 | Cc1nn2ccccc2c1C=O
175 to 178 | CN1CCc2nc3cc(Cl)ccc3c(NNc3ccccc3)c2C1
212 to 215 | CCOC(=O)c1cnn2c1nc(NCCCN(C)C)c1cnc3c(cnn3CC)c12
203 to 206 | CCCc1nc2c(N)nc3ccccc3c2n1CC(C)(C)OCCS(C)(=O)=O
117 to 120 | CCOC(=O)Cc1ccc(C(=O)c2ccc(C#N)cc2)n1C
203 to 204 | COC(=O)c1cccc(NC(N)=NC#N)c1
139 to 141 | CCOC(=O)C1Cc2c([nH]c3ccccc23)CN1C(=S)SC (centres undefined)
230 to 235 | O=C1Cc2c(OCCN3CCc4ccccc4C3)ccc(F)c2N1
124 to 126 | COc1ncc(NS(=O)(=O)c2cccc(Cl)c2Cl)c(OC)n1
208 to 209 | CN(C)CC1CCCCN1CC(=O)N1c2ccccc2NC(=O)c2cscc21 (centres undefined)

melting point [°C] | Compound
190 to 191 | COc1ccc(N2N=C3c4cc(C)sc4S(=O)(=O)CCC3CC2=O)cc1 (centres undefined)
58 to 60 | C#CCOc1ccc(Br)cn1
229 | Nc1cccc2c1N1CCN=C1S2
110 to 112 | Cc1[nH]c2ccccc2c1CCCN1CCC(c2noc3ccccc23)CC1
58 to 59 | c1cc2c3c(c1)NCC3CCC2 (centres undefined)
85 to 87 | COc1cc(OC)cc(N2CCN(CCC3CN(C)C(=O)O3)CC2)c1 (centres undefined)
143 to 145 | Cc1nn(-c2ccc(Cl)nn2)c(C)c1Br
42 to 44 | CCCCCCCCCCOc1ccc(CC(=O)OC)cc1
118 | CC(C)N(CCOc1ccc2c(=O)c3ccc(OCCN(C(C)C)C(C)C)cc3oc2c1)C(C)C
130 to 132 | CC(=O)N1CCc2nc(Nc3nc(-c4ccccc4)cs3)nc(-c3ccccc3)c2C1
123 to 124 | CC(C)C[C@H](NC(=O)OCc1ccc(Cl)cc1)C(=O)N[C@@H](Cc1ccccc1)C(=O)CSCc1ccco1
120 to 122 | CC(C)(CO)C(O)C(=O)NCc1cccnc1 (centres undefined)
153 to 155 | COC(=O)COc1c(OC)cc(C(=O)C#Cc2cc(-c3cccs3)c(OC)cc2OC)cc1OC
131 | Cc1ccc(Cn2c(NC3CCN(C)CC3)nc3cccnc32)o1
215 to 220 | CCOC(=O)CCCOc1cc(C=Cc2ccc3ccc(Br)cc3n2)ccc1Cl
108 to 110 | CCCc1cc(-c2ccc(Cl)cc2)nc2c(I)cnn12
205 to 210 | Cc1nc(Nc2ccc3[nH]ccc3c2)c2sc(-c3ccccc3)cc2n1
231 to 234 | CC(C)(NC(=O)C1=C(C(=O)Nc2cc(OC3CCCC3)c(Cl)cc2F)CCCC1)c1cccc(F)c1
269 to 271 | COC(=O)c1cc2c3cc([N+](=O)[O-])ccc3n(C)c2s1
229 to 230 | Cc1ccc(C(=O)Nc2nc(=O)n(C)cc2F)cc1
140 to 143 | CCOC(=O)N1CCCOc2cc(N)ccc21
250 | COc1ccc(CNc2nc(-c3ccc(C(=O)O)cc3)nc3sc(C(F)(F)F)cc23)cc1OC
> 270 | CC1CCCN1CCN1C=c2ccc(=c3ccc4c(c3)CCN(C)C=4)cc2CC1 (centres undefined)
110 to 114 | C[Si](C)(C)c1cc(Cl)sc1C(=O)NCCO

melting point [°C] | Compound
183 to 184 | CC(O)(Cn1ccnc1)c1ccc2c(c1)Cc1ccccc1-2 (centres undefined)
290 to 291 | Cc1nn(-c2ccc(NC=C3C(=O)NC(=O)c4ccc(Br)cc43)cc2)c(C)c1Cl
190 to 194 | Cn1c(C(F)F)nn(-c2cc(OCC(N)=O)c(Cl)cc2Cl)c1=O
113 to 115 | CNC(=O)n1nc(Oc2ccc([N+](=O)[O-])cc2C(F)(F)F)c(C)c1C
195 to 196 | COc1ccc2c(c1)CCC2n1cc[nH]c1=S (centres undefined)
148 to 149 | CC(C)=NN=C(c1ccc(Cl)cc1)c1ccc(OS(C)(=O)=O)cc1
221 | O=S(=O)(N[C@H]1CC[C@H](CCN2CCN(c3nccc4c3CCO4)CC2)CC1)c1ccc(F)cc1
> 300 | O=c1ncc2c3c(ccc2[nH]1)OCO3
190 | CN(C(=O)CCCCO/N=C(\c1ccccc1)c1ccc2c(c1)CN1CC(=O)NC1=N2)C1CCCCC1
96 to 98 | CS(=O)(=O)Oc1ccc2cc(CO)ccc2c1
173 to 175 | CS(=O)(=O)c1ccc(-c2sc(N3CCCCC3)nc2-c2ccc(F)cc2)cc1
189 to 191 | OC(CCc1c[nH]cn1)(c1ccccc1)c1ccccc1
131 to 132 | O=S(=O)(Nc1ccc2c(OCc3csc(-c4ccc(OC(F)(F)F)cc4)n3)cccc2c1)C(F)(F)F
66 | CC(C)(SC(F)(F)F)C(=O)C(Oc1ccc(Cl)cc1)n1cncn1 (centres undefined)
122 to 123 | CN(C)CCN(C)c1ccc(Nc2cc(-c3cc(F)cc(N4CCc5c(sc6c5CCCC6)C4=O)c3CO)cn(C)c2=O)nc1
233 to 234 | Nc1ccc2cccc(Oc3cc(-c4ccc(C(F)(F)F)cc4N)ncn3)c2n1
157 | CCOC(=O)N1CCCC(Nc2nc3cncnc3n2Cc2ccc(F)cc2)CC1 (centres undefined)
298 to 299 | CCCn1c(=O)c2[nH]c(-c3nn(CC(=O)Nc4ccc(Cl)cc4)c(C)c3Br)nc2n(CCC)c1=O
214 to 215 | O=C1Cc2cc(-c3ccccc3)ccc2N1
175 to 178 | COc1cc(OC)nc(NC(=O)NS(=O)(=O)c2ccccc2-c2cnoc2)n1
249 to 251 | Cc1ccc(NC(=O)c2ccc(CN3C(=O)C4(COc5cc6c(cc54)CCO6)c4ccccc43)cc2)c(C)c1 (centres undefined)
117 to 125 | CN(C)C=C(C#N)C(=O)c1ccco1

Compound | melting point [°C]
Cc1cc2cn[nH]c2c(C(=O)NC2(C3CC3)CC2)c1NC(=O)c1cc(Br)nn1-c1ncccc1Cl | 170 to 173
Cn1ccc2cc(NC(=O)c3cc4ccccc4n3Cc3cccc(C(F)(F)F)c3)ccc21 | 189 to 190
C[C@@H]1N=C(c2ccccc2F)c2cc([N+](=O)[O-])ccc2N(C)C1=O | 95 to 110
CN(C(=O)Oc1cccc2c1OC(C)(C)C2)C(=O)N1CCCCC1 | 98 to 100
CCN(CC)CCNC(=O)C1N=C(c2ccccc2)c2cc(Cl)ccc2NC1=O (centres undefined) | 220

— a melting point compilation (Tetko et al.; mined from patent text by program, amines drawn as free bases though some values may be those of a salt)
